# Laboratory results as given in patent US8999970B2, “Administration of an anti-obesity compound to individuals with renal impairment” (Arena Pharmaceuticals, Inc., priority 2010, dated 2015).
# “Also recorded” adds a separate entry of the source.
# Tests used:
# [1] = Preclinical toxicology: lorcaserin, M1 and M5 pharmacokinetics after oral administration of lorcaserin, 52 wk, monkeys; conditions: monkeys; Day 1; 2 to 125 mg/kg; both sexes
# Protocol: Lorcaserin doses of 0, 2, 10, 50, and 125 mg/kg in a 5 mL/kg dose volume were administered by nasogastric intubation once daily for 12 months to cynomolgus monkeys (4 to 6/sex/group). Two animals/sex from the control, 50 and 125 mg/kg groups were continued on study without further dosing for an additional 4 weeks prior to termination. For the first 91 days of the study, dose solutions were prepared using anhydrous lorcaserin. Starting on Day 92 and continuing for the remainder of the study, dose solutions were prepared using lorcaserin hemihydrate to match the intended commercial form. […] Evaluations included clinical signs, food consumption, BW, electrocardiograms, ophthalmic exams, and clinical pathology indices. Blood samples were collected for TK analysis on Day 1, Week 4, Day 91, Day 92, and Week 52. A full necropsy was conducted on all animals, and tissues were collected, preserved, processed, and examined microscopically. Additional sections of heart were collected to allow comprehensive evaluation of all heart valves. Heart histopathologic evaluation included atria, ventricles, interventricular septum, both AV valves (mitral and tricuspid), and the aortic and pulmonic valves.
# [2] = Clinical trial APD356-016: plasma and urine pharmacokinetics of lorcaserin, M1 and M5 after a 10 mg dose in subjects with renal impairment; conditions: for Ae0-120 / fe0-120: urine; for CL renal / AUC(0-t) / Cmax / half-life / AUC0-inf / MRT inf / Vd/F / tmax: human, 10 mg; for CL renal: plasma and urine, ClR/F; for AUC(0-t) / Cmax / half-life / AUC0-inf / MRT inf / Vd/F / tmax: plasma; for MRT inf: MRTinf; for Vd/F: Vz/F; for tmax: median
# In short: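 Single 10 mg lorcaserin dose in subjects grouped by renal function; plasma and urine sampled for lorcaserin, M1 and M5. Groups set by creatinine clearance from ideal body weight, with actual-weight regrouping also summarised; the dialysis subject counted as end-stage renal disease.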
# [3] = 10 mg dose, Mild, actual BW groups
# [4] = 10 mg dose, Mild, ideal BW groups
# [5] = 10 mg dose, Moderate, actual BW groups
# [6] = 10 mg dose, Moderate, ideal BW groups
# [7] = 10 mg dose, Normal, actual BW groups
# [8] = 10 mg dose, Normal, ideal BW groups
# [9] = 10 mg dose, Severe N = 1, actual BW groups
# [10] = 10 mg dose, Severe, ideal BW groups
# [11] = Moderate N = 8, actual BW groups
# [12] = oral, 10 mg dose, Mild, actual BW groups
# [13] = oral, 10 mg dose, Mild, ideal BW groups
# [14] = oral, 10 mg dose, Moderate, actual BW groups
# [15] = oral, 10 mg dose, Moderate, ideal BW groups
# [16] = oral, 10 mg dose, Normal, actual BW groups
# [17] = oral, 10 mg dose, Normal, ideal BW groups
# [18] = oral, 10 mg dose, Severe N = 1, actual BW groups
# [19] = oral, 10 mg dose, Severe, ideal BW groups
structure (smiles),measurement,setting,value
"C[C@H]1CNCCc2ccc(Cl)cc21 [Lorcaserin, (R)-8-chloro-1-methyl-2,3,4,5-tetrahydro-1H-3-benzazepine]",Dose proportionality of plasma exposure,[1],dose linear
same,% AUC0-inf Extrapolated,[2]; [3],4.54%
same,Cl/F,[2]; [3],17.3 L/h
same,ClNR/F,[2]; [3],16.7 L/h
same,T1/2z,[2]; [3],14.6 h
same,% AUC0-inf Extrapolated,[2]; [4],3.36%
same,Cl/F,[2]; [4],13.3 L/h
same,ClNR/F,[2]; [4],12.8 L/h
same,T1/2z,[2]; [4],13.0 h
same,% AUC0-inf Extrapolated,[2]; [5],3.74%
same,Cl/F,[2]; [5],18.9 L/h
same,ClNR/F,[2]; [5],18.2 L/h
same,T1/2z,[2]; [5],14.9 h
same,% AUC0-inf Extrapolated,[2]; [6],4.92%
same,Cl/F,[2]; [6],17.7 L/h
same,ClNR/F,[2]; [6],17.0 L/h
same,T1/2z,[2]; [6],15.9 h
same,% AUC0-inf Extrapolated,[2]; [7],3.57%
same,Cl/F,[2]; [7],15.6 L/h
same,ClNR/F,[2]; [7],15.1 L/h
same,T1/2z,[2]; [7],12.1 h
same,% AUC0-inf Extrapolated,[2]; [8],3.81%
same,Cl/F,[2]; [8],17.5 L/h
same,ClNR/F,[2]; [8],17.1 L/h
same,T1/2z,[2]; [8],11.0 h
same,% AUC0-inf Extrapolated,[2]; [9],3.70%
same,Cl/F,[2]; [9],17.6 L/h
same,ClNR/F,[2]; [9],17.2 L/h
same,T1/2z,[2]; [9],18.8 h
same,% AUC0-inf Extrapolated,[2]; [10],3.59%
same,Cl/F,[2]; [10],19.7 L/h
same,ClNR/F,[2]; [10],19.0 L/h
same,T1/2z,[2]; [10],15.0 h
same,Ae0-120,[2]; [3],297 µg
same,fe0-120,[2]; [3],0.0352
same,Ae0-120,[2]; [4],326 µg
same,fe0-120,[2]; [4],0.0386
same,Ae0-120,[2]; [5],304 µg
same,fe0-120,[2]; [5],0.0360
same,Ae0-120,[2]; [6],327 µg
same,fe0-120,[2]; [6],0.0387
same,Ae0-120,[2]; [7],257 µg
same,fe0-120,[2]; [7],0.0304
same,Ae0-120,[2]; [8],185 µg
same,fe0-120,[2]; [8],0.0220
same,Ae0-120,[2]; [9],204 µg
same,fe0-120,[2]; [9],0.0242
same,Ae0-120,[2]; [10],280 µg
same,fe0-120,[2]; [10],0.0332
same,Removal by hemodialysis,[2]; ESRD,not removed; also recorded: not cleared
same,"Geometric Mean Ratio of LSM (90% CI), AUC0-inf, relative to Normal Renal Function Group","[2]; Mild N = 10, actual BW groups","0.921 (0.735, 1.15)"
same,"Geometric Mean Ratio of LSM (90% CI), AUClast, relative to Normal Renal Function Group","[2]; Mild N = 10, actual BW groups","0.912 (0.723, 1.15)"
same,"Geometric Mean Ratio of LSM (90% CI), Cmax, relative to Normal Renal Function Group","[2]; Mild N = 10, actual BW groups","0.819 (0.652, 1.03)"
same,"Geometric Mean Ratio of LSM (90% CI), AUC0-inf, relative to Normal Renal Function Group","[2]; Mild, ideal BW groups","1.30 (1.01, 1.67)"
same,"Geometric Mean Ratio of LSM (90% CI), AUClast, relative to Normal Renal Function Group","[2]; Mild, ideal BW groups","1.31 (1.01, 1.69)"
same,"Geometric Mean Ratio of LSM (90% CI), Cmax, relative to Normal Renal Function Group","[2]; Mild, ideal BW groups","0.991 (0.764, 1.29)"
same,"Geometric Mean Ratio of LSM (90% CI), AUC0-inf, relative to Normal Renal Function Group",[2]; [11],"0.869 (0.683, 1.11)"
same,"Geometric Mean Ratio of LSM (90% CI), AUClast, relative to Normal Renal Function Group",[2]; [11],"0.868 (0.678, 1.11)"
same,"Geometric Mean Ratio of LSM (90% CI), Cmax, relative to Normal Renal Function Group",[2]; [11],"0.738 (0.579, 0.941)"
same,"Geometric Mean Ratio of LSM (90% CI), AUC0-inf, relative to Normal Renal Function Group","[2]; Moderate, ideal BW groups","1.03 (0.806, 1.32)"
same,"Geometric Mean Ratio of LSM (90% CI), AUClast, relative to Normal Renal Function Group","[2]; Moderate, ideal BW groups","1.02 (0.791, 1.32)"
same,"Geometric Mean Ratio of LSM (90% CI), Cmax, relative to Normal Renal Function Group","[2]; Moderate, ideal BW groups","0.697 (0.537, 0.904)"
same,"Geometric Mean Ratio of LSM (90% CI), AUC0-inf, relative to Normal Renal Function Group","[2]; Severe N = 1, actual BW groups","0.861 (0.494, 1.50)"
same,"Geometric Mean Ratio of LSM (90% CI), AUClast, relative to Normal Renal Function Group","[2]; Severe N = 1, actual BW groups","0.861 (0.487, 1.52)"
same,"Geometric Mean Ratio of LSM (90% CI), Cmax, relative to Normal Renal Function Group","[2]; Severe N = 1, actual BW groups","0.468 (0.267, 0.821)"
same,"Geometric Mean Ratio of LSM (90% CI), AUC0-inf, relative to Normal Renal Function Group","[2]; Severe, ideal BW groups","0.931 (0.727, 1.19)"
same,"Geometric Mean Ratio of LSM (90% CI), AUClast, relative to Normal Renal Function Group","[2]; Severe, ideal BW groups","0.933 (0.723, 1.20)"
same,"Geometric Mean Ratio of LSM (90% CI), Cmax, relative to Normal Renal Function Group","[2]; Severe, ideal BW groups","0.686 (0.529, 0.891)"
same,CL renal,[2]; [12],10.3 mL/min
same,CL renal,[2]; [13],8.88 mL/min
same,CL renal,[2]; [14],11.1 mL/min
same,CL renal,[2]; [15],11.1 mL/min
same,CL renal,[2]; [16],7.8 mL/min
same,CL renal,[2]; [17],6.53 mL/min
same,CL renal,[2]; [18],7.27 mL/min
same,CL renal,[2]; [19],11 mL/min
same,AUC(0-t),"[2]; AUC24 hr, ESRD, 10 mg QD Authentic, Day 1",618 ng·h/mL
same,AUC(0-t),"[2]; AUC24 hr, Mild, 10 mg QD Authentic, Day 1",623 ng·h/mL
same,AUC(0-t),"[2]; AUC24 hr, Moderate, 10 mg QD Authentic, Day 1",515 ng·h/mL
same,AUC(0-t),"[2]; AUC24 hr, Normal, 10 mg QD Authentic, Day 1",482 ng·h/mL
same,AUC(0-t),"[2]; AUC24 hr, Severe, 10 mg QD Authentic, Day 1",469 ng·h/mL
same,Cmax,"[2]; ESRD, 10 mg QD Authentic, Day 1",27.2 ng/mL
same,Cmax,"[2]; Mild, 10 mg QD Authentic, Day 1",36.3 ng/mL
same,Cmax,"[2]; Moderate, 10 mg QD Authentic, Day 1",26.2 ng/mL
same,Cmax,"[2]; Normal, 10 mg QD Authentic, Day 1",37 ng/mL
same,Cmax,"[2]; Severe, 10 mg QD Authentic, Day 1",26.4 ng/mL
same,half-life,"[2]; t1/2, ESRD, 10 mg QD Authentic, Day 1",43.8 h
same,half-life,"[2]; t1/2, Mild, 10 mg QD Authentic, Day 1",13 h
same,half-life,"[2]; t1/2, Moderate, 10 mg QD Authentic, Day 1",15.9 h
same,half-life,"[2]; t1/2, Normal, 10 mg QD Authentic, Day 1",11 h
same,half-life,"[2]; t1/2, Severe, 10 mg QD Authentic, Day 1",15 h
same,AUC0-inf,[2]; [12],535 ng·h/mL
same,AUC0-inf,[2]; [13],644 ng·h/mL
same,AUC0-inf,[2]; [14],516 ng·h/mL
same,AUC0-inf,[2]; [15],538 ng·h/mL
same,AUC0-inf,[2]; [16],569 ng·h/mL
same,AUC0-inf,[2]; [17],501 ng·h/mL
same,AUC0-inf,[2]; [18],478 ng·h/mL
same,AUC0-inf,[2]; [19],486 ng·h/mL
same,AUC(0-t),"[2]; oral, AUC0-t, 10 mg dose, Mild, actual BW groups",513 ng·h/mL
same,AUC(0-t),"[2]; oral, AUC0-t, 10 mg dose, Mild, ideal BW groups",623 ng·h/mL
same,AUC(0-t),"[2]; oral, AUC0-t, 10 mg dose, Moderate, actual BW groups",497 ng·h/mL
same,AUC(0-t),"[2]; oral, AUC0-t, 10 mg dose, Moderate, ideal BW groups",515 ng·h/mL
same,AUC(0-t),"[2]; oral, AUC0-t, 10 mg dose, Normal, actual BW groups",549 ng·h/mL
same,AUC(0-t),"[2]; oral, AUC0-t, 10 mg dose, Normal, ideal BW groups",482 ng·h/mL
same,AUC(0-t),"[2]; oral, AUC0-t, 10 mg dose, Severe N = 1, actual BW groups",461 ng·h/mL
same,AUC(0-t),"[2]; oral, AUC0-t, 10 mg dose, Severe, ideal BW groups",469 ng·h/mL
same,Cmax,[2]; [12],30.2 ng/mL
same,Cmax,[2]; [13],36.3 ng/mL
same,Cmax,[2]; [14],27.6 ng/mL
same,Cmax,[2]; [15],26.2 ng/mL
same,Cmax,[2]; [16],36 ng/mL
same,Cmax,[2]; [17],37 ng/mL
same,Cmax,[2]; [18],16.4 ng/mL
same,Cmax,[2]; [19],26.4 ng/mL
same,MRT inf,[2]; [12],19.3 h
same,MRT inf,[2]; [13],18 h
same,MRT inf,[2]; [14],20.8 h
same,MRT inf,[2]; [15],21.1 h
same,MRT inf,[2]; [16],16.5 h
same,MRT inf,[2]; [17],14.8 h
same,MRT inf,[2]; [18],30.8 h
same,MRT inf,[2]; [19],21.7 h
same,Vd/F,[2]; [12],361 L
same,Vd/F,[2]; [13],248 L
same,Vd/F,[2]; [14],381 L
same,Vd/F,[2]; [15],399 L
same,Vd/F,[2]; [16],266 L
same,Vd/F,[2]; [17],276 L
same,Vd/F,[2]; [18],479 L
same,Vd/F,[2]; [19],401 L
same,tmax,[2]; [12],2.5 h
same,tmax,[2]; [13],4.5 h
same,tmax,[2]; [14],2.5 h
same,tmax,[2]; [15],2.5 h
same,tmax,[2]; [16],2 h
same,tmax,[2]; [17],2 h
same,tmax,[2]; [18],4 h
same,tmax,[2]; [19],3 h
same,Fractional excretion,[2]; normal renal function,2.2%
